Source: patent US20250344698A1, “A METHOD OF CONTROLLING WEEDS” (SYNGENTA CROP PROTECTION AG, priority 2022, published 2025)

System: PPO inhibitor herbicide resistant Amaranthus tuberculatus homozygous for deletion of glycine at codon 210 in PPX2L
Experiment: Postemergence glasshouse test, dead or alive assessment, codon 210 deletion population
Assay type: in vivo
Settings: 14 days after application; for use rate at or beyond which no plants survived application: postemergence

Row | Structure (SMILES) | Average % Survival of 16 repetitions (0.82 g ai/ha^−1 postemergence) [%] | Average % Survival of 16 repetitions (1.64 g ai/ha^−1 postemergence) [%] | Average % Survival of 16 repetitions (3.28 g ai/ha^−1 postemergence) [%] | Average % Survival of 16 repetitions (6.56 g ai/ha^−1 postemergence) [%] | Average % Survival of 16 repetitions (13.13 g ai/ha^−1 postemergence) [%] | Average % Survival of 16 repetitions (26.25 g ai/ha^−1 postemergence) [%] | Average % Survival of 16 repetitions (52.5 g ai/ha^−1 postemergence) [%] | Average % Survival of 16 repetitions (105 g ai/ha^−1 postemergence) [%] | Average % Survival of 16 repetitions (210 g ai/ha^−1 postemergence) [%] | Average % Survival of 16 repetitions (420 g ai/ha^−1 postemergence) [%] | Average % Survival of 16 repetitions (840 g ai/ha^−1 postemergence) [%] | use rate at or beyond which no plants survived application [g ai/ha^−1] | Average % Survival of 16 repetitions (2 g ai/ha^−1 postemergence) [%] | Average % Survival of 16 repetitions (4 g ai/ha^−1 postemergence) [%] | Average % Survival of 16 repetitions (8 g ai/ha^−1 postemergence) [%] | Average % Survival of 16 repetitions (16 g ai/ha^−1 postemergence) [%] | Average % Survival of 16 repetitions (32 g ai/ha^−1 postemergence) [%] | Average % Survival of 16 repetitions (64 g ai/ha^−1 postemergence) [%] | Average % Survival of 16 repetitions (128 g ai/ha^−1 postemergence) [%] | Average % Survival of 16 repetitions (256 g ai/ha^−1 postemergence) [%]
1 | CS(=O)(=O)NC(=O)c1cc(Oc2ccc(C(F)(F)F)cc2Cl)ccc1[N+](=O)[O-] [Fomesafen] | 100 | 100 | 100 | 100 | 100 | 100 | 81.3 | 62.5 | 0 | 0 | 0 | ≥ 210 | – | – | – | – | – | – | – | –
2 | CCOC(=O)C1(C)CC(c2cc(-n3c(=O)cc(C(F)(F)F)n(C)c3=O)c(F)cc2Cl)=NO1 (stereo not drawn) [Compound 8, 3-(2-chloro-4-fluoro-5-(3-methyl-2,6-dioxo-4-trifluoromethyl-3,6-dihydropyrimidin-1(2H)-yl)phenyl)-5-methyl-4,5-dihydroisoxazole-5-carboxylic acid ethyl ester] | – | – | – | – | – | – | – | – | – | – | – | ≥ 64 | 100 | 100 | 75 | 12.5 | 12.5 | 0 | 0 | 0
